Patent US20240150358A1, “PURINES AND METHODS OF THEIR USE” (Kineta, Inc., priority 2020, published 2024)
Like-named read-outs stand apart in the source and are kept apart here.

Experiments:
[1] = system: PIKFYVE TDP-43 yeast strain; experiment: Propidium iodide flow cytometry viability assay, PIKFYVE TDP-43 yeast strain; assay type: cell-based; details: for IC50: reduction in PI-positive cells, values plotted in FIG. 7; for PIKfyve TDP-43 (active/inactive): yeast viability, 15 μM to 0.11 μM
Excerpt: (§1) Generation of TDP-43 yeast model expressing human PIKfyve. Human PIKFYVE (“entry clone”) was cloned into pAG416GPDccdB (“destination vector”) according to standard Gateway cloning protocols (Invitrogen, Life Technologies). The resulting pAG416GPD-PIKFYVE plasmids were amplified in E. coli and plasmid identity confirmed by restriction digest and Sanger sequencing. Lithium acetate/polyethylene glycol-based transformation was used to introduce the above PIKFYVE plasmid into a BY4741 yeast strain auxotrophic for the ura3 gene and deleted for two transcription factors that regulate the xenobiotic efflux pumps, a major efflux pump, and FAB1, the yeast ortholog of PIKFYVE (MATa, snq2::KILeu2; pdr3::Klura3; pdr1::NATMX; fab1::G418R, his3; leu2; ura3; met15; LYS2+) (FIG. 2). Transformed yeast were plated on solid agar plates with complete synthetic media lacking uracil (CSM-ura) and containing 2% glucose. Individual colonies harboring the control or PIKFYVE TDP-43 plasmids were recovered. A plasmid containing wild-type TDP-43 under the transcriptional control of the GAL1 promoter and containing the hygromycin-resistance gene as a selectable marker was transformed into the fab/::G418R pAG416GPD-PIKFYVE yeast strain (FIG. 1). Transformed yeast were plated on CSM-ura containing 2% glucose and […] after overnight recovery in media lacking antibiotic. Multiple independent isolates were further evaluated for cytotoxicity and TDP-43 expression levels.
(§2) Viability Assay. A control yeast strain with the wild-type yeast FAB1 gene and TDP-43 (“FAB1 TDP-43”, carries empty pAG416 plasmid), and the “PIKFYVE TDP-43” yeast strain, were assessed for toxicity using a propidium iodide viability assay. Both yeast strains were transferred from solid CSM-ura/2% glucose agar plates into 3 mL of liquid CSM-ura/2% glucose media for 6-8 hours at 30° C. with aeration. Yeast cultures were then diluted to an optical density at 600 nm wavelength (OD600) of 0.005 in 3 mL of CSM-ura/2% raffinose and grown overnight at 30° C. with aeration to an OD600 of 0.3-0.8. Log-phase overnight cultures were diluted to OD600 of 0.005 in CSM-ura containing either 2% raffinose or galactose and 150 μL dispensed into each well of a flat bottom 96-well plates. Compounds formulated in 100% dimethyl sulfoxide (DMSO) were serially diluted in DMSO and 1.5 μL diluted compound transferred to the 96-well plates using a multichannel pipet. Wells containing DMSO alone were also evaluated as controls for compound effects. Tested concentrations ranged from 15 μM to 0.11 μM. Cultures were immediately mixed to ensure compound distribution and covered plates incubated at 30° C. for 24 hours in a stationary, humified incubator.
(§3) Upon the completion of incubation, cultures were assayed for viability using propidium iodide (PI) to stain for dead/dying cells. A working solution of PI was made where, for each plate, 1 μL of 10 mM PI was added to 10 mL of CSM-ura (raffinose or galactose). The final PI solution ([…]) was dispensed into each well of a new round bottom 96-well plate. The overnight 96-well assay plate was then mixed with a multichannel pipet and 50 μL transferred to the PI-containing plate. This plate was then incubated for 30 minutes at 30° C. in the dark. A benchtop flow cytometer (Miltenyi MACSquant) was then used to assess red fluorescence (B2 channel), forward scatter, and side scatter (with following settings: gentle mix, high flow rate, fast measurement, 10,000 events). Intensity histograms were then gated for “PI-positive” or “PI-negative” using the raffinose and galactose cultures treated with DMSO as controls. The DMSO controls for raffinose or galactose-containing cultures were used to determine the window of increased cell death and this difference set to 100. All compounds were similarly gated and then compared to this maximal window to establish the percent reduction in PI-positive cells.

[2] = molecular target: full-length human PIKFYVE (Homo sapiens (Human), UniProt Q9Y2I7, L932S/Q1183K/Q995L/S1033A/S696N/T998S); experiment: PIKfyve biochemical assay (ADP-Glo Kinase assay, Carna Biosciences)
Method: (§4) PIKfyve Biochemical Assay. The biochemical PIKFyve inhibition assays were run by Carna Biosciences according to proprietary methodology based on the Promega ADP-Glo™ Kinase assay. […] GST-PIKFYVE was purified by using glutathione sepharose chromatography and used in an ADP-Glo™ Kinase assay (Promega). Reactions were set up by adding the test compound solution, substrate solution, ATP solution and kinase solution, each at 4× final concentrations. Reactions were prepared with assay buffer (50 mM MOPS, 1 mM DTT, pH7.2), mixed, and incubated in black 384 well polystyrene plates for 1 hour at room temperature. ADPGlo™ reagent was then added for 40 minutes, followed by kinase detection reagent for an additional 40 minutes. The kinase activity was evaluated by detecting relative light units on a luminescence plate reader. Samples were run in duplicate from 10 μM to 3 nM. […] IC50 values were calculated from concentration vs % inhibition curves by fitting to a four-parameter logistic curve.
as §4, with “The” for “PIKfyve Biochemical Assay. The”, “ADP-Glo™” for “ADPGlo™”, “uM” for “μM”, “curve. […]” for “curve.”

FAB1 TDP-43 yeast strain = experiment: Propidium iodide flow cytometry viability assay, control FAB1 TDP-43 yeast strain; assay type: cell-based; details: 15 μM to 0.11 μM
Excerpt: as §1, §2, §3

hPIKfyve = hPIKfyve (Homo sapiens (Human), UniProt Q9Y2I7); experiment: NanoBRET TE Intracellular Kinase Assay, K-8, in HEK293 cells transfected with PIKFYVE-NanoLuc Fusion Vector; assay type: cell-based; details: 2 hours, tracer displacement, read-out: hPIKfyve BRET IC50
Method: NanoBRET™ TE Intracellular Kinase Assay, K-8 (Promega) Cell-Based Assay. Intracellular inhibition of PIKfyve was assayed using Promega's NanoBRET™ TE Intracellular Kinase Assay, K-8 according to manufacturer's instructions. A dilution series of test compounds was added for 2 hours to HEK293 cells transfected for a minimum of 20 hours with PIKFYVE-NanoLuc® Fusion Vector (Promega) containing a full-length PIKfyve according to manufacturer's specifications in a 96-well plate. Kinase activity was detected by addition of a NanoBRET™ tracer reagent, which was a proprietary PIKfyve inhibitor appended to a fluorescent probe (BRET, bioluminescence resonance energy transfer). Test compounds were tested at concentrations of 10, 3, 1, 0.3, 0.1, 0.03, 0.01, 0.003 μM. BRET signals were measured by a GloMax®Discover Multimode Microplate Reader (Promega) using 0.3 sec/well integration time, 450BP donor filter and 600LP acceptor filters. Active test compounds that bound PIKfyve and displaced the tracer reduced BRET signal. IC50 values were then calculated by fitting the data to the normalized BRET ratio.

[3] = values plotted in FIG. 7, read-out: PIKFYVE Biochemistry (IC50)
[4] = ADP-Glo, GST-PIKFYVE, 10 μM to 3 nM, read-out: hPIKfyve IC50
[5] = ADP-Glo with full-length PIKfyve, read-out: PIKfyve IC50

full-length human PIKFYVE, sequence (Q9Y2I7 whole entry S696N/L932S/Q995L/T998S/S1033A/Q1183K): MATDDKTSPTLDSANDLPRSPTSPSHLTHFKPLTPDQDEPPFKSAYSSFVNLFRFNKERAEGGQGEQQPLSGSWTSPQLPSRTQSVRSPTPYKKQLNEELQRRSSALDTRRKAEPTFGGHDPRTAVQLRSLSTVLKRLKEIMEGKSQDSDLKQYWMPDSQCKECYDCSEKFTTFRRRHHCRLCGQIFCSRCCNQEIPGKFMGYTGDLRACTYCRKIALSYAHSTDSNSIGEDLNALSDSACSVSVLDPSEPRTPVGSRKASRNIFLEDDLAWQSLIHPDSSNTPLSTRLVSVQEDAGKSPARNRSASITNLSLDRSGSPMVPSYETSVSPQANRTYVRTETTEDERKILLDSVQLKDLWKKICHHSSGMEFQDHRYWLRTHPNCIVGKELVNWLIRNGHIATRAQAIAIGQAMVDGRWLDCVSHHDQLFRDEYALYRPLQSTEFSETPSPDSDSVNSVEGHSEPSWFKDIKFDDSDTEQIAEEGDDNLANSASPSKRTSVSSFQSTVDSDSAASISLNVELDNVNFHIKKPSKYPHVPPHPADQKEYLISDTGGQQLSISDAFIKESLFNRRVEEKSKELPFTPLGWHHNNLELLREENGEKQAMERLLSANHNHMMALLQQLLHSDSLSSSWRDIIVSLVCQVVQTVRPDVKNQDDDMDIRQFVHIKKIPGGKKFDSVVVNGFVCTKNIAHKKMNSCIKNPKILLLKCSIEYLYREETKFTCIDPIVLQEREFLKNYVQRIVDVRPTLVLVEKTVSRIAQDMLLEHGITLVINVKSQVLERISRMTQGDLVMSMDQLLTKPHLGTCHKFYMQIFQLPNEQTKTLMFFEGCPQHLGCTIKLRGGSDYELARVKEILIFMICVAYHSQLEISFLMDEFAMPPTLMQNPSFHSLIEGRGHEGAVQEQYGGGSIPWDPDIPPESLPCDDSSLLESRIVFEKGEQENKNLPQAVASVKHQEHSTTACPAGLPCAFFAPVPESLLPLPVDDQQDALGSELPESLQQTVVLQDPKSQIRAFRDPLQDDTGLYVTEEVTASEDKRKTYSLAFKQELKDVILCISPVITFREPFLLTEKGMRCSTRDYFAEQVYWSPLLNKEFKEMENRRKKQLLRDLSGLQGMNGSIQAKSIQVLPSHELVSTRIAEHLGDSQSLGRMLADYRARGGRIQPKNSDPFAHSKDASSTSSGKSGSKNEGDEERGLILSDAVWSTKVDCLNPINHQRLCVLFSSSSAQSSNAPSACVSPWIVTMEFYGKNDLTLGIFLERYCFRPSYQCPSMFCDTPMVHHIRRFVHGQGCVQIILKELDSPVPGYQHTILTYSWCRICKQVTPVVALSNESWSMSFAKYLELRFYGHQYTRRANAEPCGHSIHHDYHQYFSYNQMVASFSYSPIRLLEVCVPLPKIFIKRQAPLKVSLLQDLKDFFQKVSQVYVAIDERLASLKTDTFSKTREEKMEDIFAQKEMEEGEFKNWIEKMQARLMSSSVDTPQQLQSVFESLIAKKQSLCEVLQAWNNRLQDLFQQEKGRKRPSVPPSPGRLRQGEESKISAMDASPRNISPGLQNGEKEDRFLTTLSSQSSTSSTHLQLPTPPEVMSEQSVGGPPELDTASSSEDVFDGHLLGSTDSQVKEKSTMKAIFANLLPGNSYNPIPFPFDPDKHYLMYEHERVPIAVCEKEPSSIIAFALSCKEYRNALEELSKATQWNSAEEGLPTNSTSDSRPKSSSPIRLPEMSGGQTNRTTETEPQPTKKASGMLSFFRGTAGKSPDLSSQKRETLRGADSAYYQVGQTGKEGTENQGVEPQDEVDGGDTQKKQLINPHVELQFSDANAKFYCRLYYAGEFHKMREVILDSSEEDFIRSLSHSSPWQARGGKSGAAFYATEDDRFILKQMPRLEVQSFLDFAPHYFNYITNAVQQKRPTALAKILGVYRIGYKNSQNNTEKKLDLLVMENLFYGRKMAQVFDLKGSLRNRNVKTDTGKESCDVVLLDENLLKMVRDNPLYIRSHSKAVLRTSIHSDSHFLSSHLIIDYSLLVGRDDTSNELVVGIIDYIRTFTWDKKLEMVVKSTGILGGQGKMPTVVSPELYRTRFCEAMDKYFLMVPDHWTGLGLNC
hPIKfyve, sequence (Q9Y2I7 whole entry, the tested form may be a part): as the sequence (Q9Y2I7 whole entry S696N/L932S/Q995L/T998S/S1033A/Q1183K) above, with N696S, S932L, L995Q, S998T, A1033S, K1183Q counted along it

c1ccc(-c2ccnc(-c3cc(N4CCOCC4)nc(OCc4ccncc4)n3)n2)cc1
IC50 ([1]; Saccharomyces cerevisiae): 1450 nM

c1ccc(-c2cccc(-c3nc(N4CCOCC4)n4nc(-c5ccncc5)cc4n3)n2)cc1
IC50 [2, 3]: 14 nM
IC50 ([1]; Saccharomyces cerevisiae): 230 nM

Cc1cccc(/C=N/Nc2cc(N3CCOCC3)nc(OCCc3ccccn3)n2)c1
PIKfyve TDP-43 (active/inactive) [1]: Inactive
FAB1 TDP-43 (active/inactive) (FAB1 TDP-43 yeast strain): Inactive

Cc1cccc(/C=N/Nc2nc(N3CCOCC3)c3nc(-c4ccncc4)n(C)c3n2)c1 [Compound 118]
IC50 [2, 4]: 10 to 100 nM
IC50 (hPIKfyve): 10 to 100 nM

Cn1c(-c2ccncc2)nc2c(N3CCOCC3)nc(-n3ccc(-c4cccc(F)c4)n3)nc21 [Compound 28]
IC50 [2, 4]: 10 to 100 nM
IC50 (hPIKfyve): 10 to 100 nM

Fc1cccc(-c2ccnn2-c2nc(N3CCOCC3)c3ncccc3n2)c1
IC50 [2, 3]: > 10000 nM
IC50 ([1]; Saccharomyces cerevisiae): 5750 nM

Cn1c(-c2ccncc2)nc2c(N3CCOCC3)ncnc21 [drawing 169]
IC50 [2, 3]: 7 nM
IC50 [1]: 1120 nM

Cn1c(-c2ccncc2)nc2c(N3CCOCC3)nc(-n3cccn3)nc21 [Compound 47]
IC50 [2, 4]: 10 to 100 nM
IC50 (hPIKfyve): 100 to 1000 nM

Oc1cc(C2CCOCC2)nn1-c1cc(N2CCOCC2)n2nc(-c3ccncc3)cc2n1
IC50 ([1]; Saccharomyces cerevisiae): 9100 nM

Cc1cccc(/C=N/Nc2cc(N3CC4CC3CO4)n3nc(-c4ccncc4)cc3n2)c1 (stereo not shown)
IC50 [2, 3]: 3 nM
IC50 ([1]; Saccharomyces cerevisiae): 450 nM

Cn1c(-c2ccncc2)nc2c(N3CCOCC3)nc(-c3noc(-c4ccccc4)n3)nc21 [Compound 32]
IC50 [2, 4]: 10 to 100 nM
IC50 (hPIKfyve): 100 to 1000 nM

Cn1c(-c2ccncc2)nc2c(N3CCOCC3)nc(-c3ccnc(-c4ccccc4)n3)nc21 [Compound 1]
IC50 [2, 4]: 10 to 100 nM
IC50 (hPIKfyve): 10 to 100 nM

Cc1cccc(/C=N/Nc2nc(N3CCOCC3)c3nc(-c4ccncc4)n(C)c3n2)c1 [drawing 168]
IC50 [2, 3]: 1 nM
IC50 [1]: 1390 nM

Cc1cccc(/C=N/Nc2nc(N3CCOCC3)c3ncccc3n2)c1
IC50 ([1]; Saccharomyces cerevisiae): 8210 nM

CN1CCC(c2ccn(-c3nc(N4CCOCC4)c4nc(-c5ccncc5)n(C)c4n3)n2)C1 (stereo not shown) [Compound 37]
IC50 [2, 4]: 100 to 1000 nM
IC50 (hPIKfyve): 1000 to 10000 nM

Cc1cccc(/C=N/Nc2cc(N3CCOCC3)n3nc(-c4ccncc4)cc3n2)c1 [drawing 161]
PIKfyve TDP-43 (active/inactive) [1]: Active
FAB1 TDP-43 (active/inactive) (FAB1 TDP-43 yeast strain): Inactive

c1cc(-c2nc3c(N4CCOCC4)nc(-n4ccc(C5CCOCC5)n4)nc3[nH]2)ccn1 [Compound 6]
IC50 [2, 4]: 10 to 100 nM
IC50 (hPIKfyve): 10 to 100 nM

c1ccc(C2CN(c3nc(N4CCOCC4)n4nc(-c5ccncc5)cc4n3)CCN2)cc1 (stereo not shown)
IC50 [2, 3]: 2660 nM
IC50 ([1]; Saccharomyces cerevisiae): > 15000 nM

Cc1cccc(/C=N/Nc2nc(N3CCOCC3)c3nc(-c4ccncc4)n(C)c3n2)c1 [drawing 177]
IC50 [2, 3]: 5 nM
IC50 [1]: 4720 nM

c1ccc(N2CCc3c(OCc4cccnc4)nc(N4CCOCC4)nc32)cc1
IC50 ([1]; Saccharomyces cerevisiae): 2680 nM

Cc1cccc(/C=N/Nc2cc(N3CCOCC3)nc(OCCc3ccc(CN)cc3)n2)c1
IC50 [2, 5]: 12 nM
PIKfyve TDP-43 (active/inactive) [1]: Active
FAB1 TDP-43 (active/inactive) (FAB1 TDP-43 yeast strain): Inactive

Cc1cccc(/C=N/Nc2cc(N3CCOCC3)n3nc(-c4ccncc4)cc3n2)c1 [drawing 163]
PIKfyve TDP-43 (active/inactive) [1]: Active
FAB1 TDP-43 (active/inactive) (FAB1 TDP-43 yeast strain): Inactive

CN(C)c1cc(N2CCOCC2)n2nc(-c3ccncc3)cc2n1
PIKfyve TDP-43 (active/inactive) [1]: Inactive
FAB1 TDP-43 (active/inactive) (FAB1 TDP-43 yeast strain): Inactive

c1cc(-c2cc3nc(C4CNC4)nc(N4CCOCC4)n3n2)ccn1
IC50 [2, 3]: 8020 nM
IC50 ([1]; Saccharomyces cerevisiae): > 15000 nM

Cc1cccc(/C=N/Nc2nc(N3CCOCC3)c3nc(-c4ccncc4)[nH]c3n2)c1 [Compound 119]
IC50 [2, 4]: < 10 nM
IC50 (hPIKfyve): < 10 nM

N#Cc1cc(N2CCOCC2)n2nc(-c3ccncc3)cc2n1
IC50 [2, 5]: > 10000 nM
PIKfyve TDP-43 (active/inactive) [1]: Inactive
FAB1 TDP-43 (active/inactive) (FAB1 TDP-43 yeast strain): Inactive

Cc1cccc(/C=N/Nc2nc(N3CCOCC3)c3nc(-c4ccncc4)n(C)c3n2)c1 [Compound 52, (E)-4-(9-methyl-2-(2-(3-methylbenzylidene)hydrazineyl)-8-(pyridin-4-yl)-9H-purin-6-yl)morpholine]
IC50 [2, 4]: < 10 nM
IC50 (hPIKfyve): < 10 nM

Cn1c(-c2ccncc2)nc2c(N3CCOCC3)nc(-n3ccc(C4CCOC4)n3)nc21 (stereo not shown) [Compound 96, 4-(9-methyl-8-(pyridin-4-yl)-2-(3-(tetrahydrofuran-3-yl)-1H-pyrazol-1-yl)-9H-purin-6-yl)morpholine]
IC50 [2, 4]: 1000 to 10000 nM

Cn1c(-c2ccncc2)nc2c(N3CCOCC3)nc(-n3ccc(CC4CNC4)n3)nc21 [Compound 80, 4-(2-(3-(azetidin-3-ylmethyl)-1H-pyrazol-1-yl)-9-methyl-8-(pyridin-4-yl)-9H-purin-6-yl)morpholine]
IC50 [2, 4]: 100 to 1000 nM

Oc1cc(-c2ccccc2)nn1-c1cc(N2CCOCC2)n2nc(-c3ccncc3)nc2n1
IC50 ([1]; Saccharomyces cerevisiae): 693 nM
